Tests used:
Type in all cases: in vivo
[1] = tested on: grain aphid (Metopolophium dirhodum); test: Metopolophium dirhodum test, spray application on barley plants
Excerpt: (§1) The expected activity of a given combination of two active compounds can be calculated as follows (cf. Colby, S. R., “Calculating Synergistic and Antagonistic Responses of Herbicide Combinations”, Weeds 15, pages 20-22, 1967):
(§2) • X is the kill rate expressed in % of the untreated control when employing active compound A at an application rate of m ppm, • Y is the kill rate expressed in % of the untreated control when employing active compound B at an application rate of n ppm, • E is the kill rate expressed in % of the untreated control when using the active compounds A and B at application rates of m and n ppm,
(§3) If the actual insecticidal kill rate exceeds the calculated value, the kill of the combination is superadditive, i.e. a synergistic effect is present. In this case, the actually observed kill rate must exceed the value calculated using the above formula for the expected kill rate (E).
(§4) Adjuvant: rapeseed oil methyl ester (0.1% of a.i./l)
(§5) To prepare a suitable application solution, 1 part by weight of formulation is mixed with the appropriate amount of water and the adjuvant and the concentrate is diluted with water to the desired concentration. […]
(§6) After the desired period of time, the kill in % is determined. […] The determined kill rates are entered in Colby's formula.

[2] = tested on: cotton aphid (Aphis gossypii); test: Aphis gossypii test, spray application on cotton plants; settings: 100 ppm
Excerpt: as §1, §2, §3, §4, §5, §6

[3] = tested on: green peach aphid (Myzus persicae); test: Myzus persicae test, spray application on bell pepper plants
Excerpt: as §1, §2, §3, §4
To prepare a suitable application solution, 1 part by weight of formulation is mixed with the appropriate amount of water and the adjuvant and the concentrate is diluted with water to the desired concentration.
Bell pepper plants (Capsicum sativum) which are heavily infested by the green peach aphid (Myzus persicae) are sprayed to runoff point with the desired concentration of the application solution.
After the desired period of time, the kill in % is determined. 100% means that all aphids have been killed; 0% means that none of the aphids have been killed. The determined kill rates are entered in Colby's formula.

winter barley = test: Safener test after spraying: plant damage to barley (greenhouse); settings: 100 g of a.i./ha
Procedure: (§7) Method: Safener test after spraying
(§8) Solvent: 7 parts by weight of DMF
(§9) Emulsifier: 2 parts by weight of alkylaryl polyglycol ether
(§10) To produce a suitable preparation of active compound, 1 part by weight of active compound is mixed with the stated amounts of solvent and emulsifier, and the concentrate is diluted with tap water to the desired concentration. The desired amount of safener (in the case of mefenpyr-diethyl as WP 20) is mixed into the water used for dilution. Furthermore, 2 g of a.i./l of rapeseed oil methyl ester 500 EW are added. Leaves of winter barley at the 2-leaf stage which are infested by the bird cherry-oat aphid (Rhopalosiphum padi) are treated with the desired active compound and safener concentrations using a spray boom, the water application rate being […]. Per variant, the test is carried out at least twice. Evaluation is carried out after 7 d and/or 14 d by assessing the plant damage in % and the kill of the grain aphids in % compared to the untreated control. 100% damage means that the plant has died, and 0% means no damage. 100% effect on the grain aphids means that all aphids have been killed; 0% means that none of the aphids have been killed.
(§11) Results for greenhouse trials with safener after spraying against Rhopalosiphum padi on summer barley/winter barley

[4] = tested on: bird cherry-oat aphid (Rhopalosiphum padi); test: Safener test after spraying: kill of aphids on barley (greenhouse); settings: 100 g of a.i./ha, barley at 2-leaf stage, spray boom
Procedure: as §7, §8, §9, §10, §11

C=CCN(CC=C)C(=O)C(Cl)Cl [Dichlormid a.i., 2,2-dichloro-N,N-di-2-propenyl-acetamide]
Kill rate in % after 7 d, found ([1]; 100 ppm): 0% | Kill rate in % after 7 d, found [2]: 0% | Kill rate in % after 7 d, found ([3]; 100 ppm): 0%

Clc1cc(Cl)nc(-c2ccccc2)n1 [Fenclorim a.i., 4,6-dichloro-2-phenyl-pyrimidine]
Kill rate in % after 7 d, found ([1]; 25 ppm): 0% | Kill rate in % after 7 d, found ([3]; 50 ppm): 0%

CC1(C)OC(c2ccco2)CN1C(=O)C(Cl)Cl (centres unmarked) [Furilazole a.i., 3-dichloroacetyl-5-(2-furanyl)-2,2-dimethyl-oxazolidine]
Kill rate in % after 7 d, found ([3]; 50 ppm): 0%

CCOC(=O)C1=NN(c2ccc(Cl)cc2Cl)C(C)(C(=O)OCC)C1 (centres unmarked) [mefenpyr-diethyl, diethyl 1-(2,4-dichloro-phenyl)-4,5-dihydro-5-methyl-1H-pyrazole-3,5-dicarboxylate]
Damage to new growth (%) 7 d (winter barley; 7 d): 0% | Damage (%) 7 d (winter barley; 7 d, 100% = plant has died): 0% | Damage to new growth (%) 14 d (winter barley; 14 d): 0% | Damage (%) 14 d (winter barley; 14 d, 100% = plant has died): 0% | Kill (%) 7 d [4]: 0%
